Test results reported in the supplement of paper PMC11451515.

Test system: NOMO1
Test: cell viability relative to DMSO control; higher = less cytotoxic
Settings: 48 h
Outline: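 Library compounds in DMSO were pin-dosed in an 11-point threefold series (47 μM to 0.79 nM) onto leukemia cells in 1536-well plates (5 μl). Plates held 500 cells/well of NOMO1 or SEM or 1000 cells/well of P12-Ichikawa, each adapted for at least four passages in each medium. Luminescence was read with CellTiter-Glo One after 48 h at 37°C. Viability means the per-plate percentage relative to DMSO wells, using cell-free wells as background.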

[1] = HPLM + 10% dialyzed FBS, 0.000781 µM
[2] = HPLM + 10% dialyzed FBS, 0.00234 µM
[3] = HPLM + 10% dialyzed FBS, 0.00702 µM
[4] = HPLM + 10% dialyzed FBS, 0.0211 µM
[5] = HPLM + 10% dialyzed FBS, 0.0632 µM
[6] = HPLM + 10% dialyzed FBS, 0.19 µM
[7] = HPLM + 10% dialyzed FBS, 0.569 µM
[8] = HPLM + 10% dialyzed FBS, 1.71 µM
[9] = HPLM + 10% dialyzed FBS, 5.12 µM
[10] = HPLM + 10% dialyzed FBS, 15.4 µM
[11] = HPLM + 10% dialyzed FBS, 46.1 µM
[12] = RPMI 5 mM glucose + 10% FBS, 0.000781 µM
[13] = RPMI 5 mM glucose + 10% FBS, 0.00234 µM
[14] = RPMI 5 mM glucose + 10% FBS, 0.00702 µM
[15] = RPMI 5 mM glucose + 10% FBS, 0.0211 µM
[16] = RPMI 5 mM glucose + 10% FBS, 0.0632 µM
[17] = RPMI 5 mM glucose + 10% FBS, 0.19 µM
[18] = RPMI 5 mM glucose + 10% FBS, 0.569 µM
[19] = RPMI 5 mM glucose + 10% FBS, 1.71 µM
[20] = RPMI 5 mM glucose + 10% FBS, 5.12 µM
[21] = RPMI 5 mM glucose + 10% FBS, 15.4 µM
[22] = RPMI 5 mM glucose + 10% FBS, 46.1 µM
[23] = RPMI 5 mM glucose + 10% dialyzed FBS, 0.000781 µM
[24] = RPMI 5 mM glucose + 10% dialyzed FBS, 0.00234 µM
[25] = RPMI 5 mM glucose + 10% dialyzed FBS, 0.00702 µM
[26] = RPMI 5 mM glucose + 10% dialyzed FBS, 0.0211 µM
[27] = RPMI 5 mM glucose + 10% dialyzed FBS, 0.0632 µM
[28] = RPMI 5 mM glucose + 10% dialyzed FBS, 0.19 µM
[29] = RPMI 5 mM glucose + 10% dialyzed FBS, 0.569 µM
[30] = RPMI 5 mM glucose + 10% dialyzed FBS, 1.71 µM
[31] = RPMI 5 mM glucose + 10% dialyzed FBS, 5.12 µM
[32] = RPMI 5 mM glucose + 10% dialyzed FBS, 15.4 µM
[33] = RPMI 5 mM glucose + 10% dialyzed FBS, 46.1 µM

Compound	cell viability [1]	cell viability [2]	cell viability [3]	cell viability [4]	cell viability [5]	cell viability [6]	cell viability [7]	cell viability [8]	cell viability [9]	cell viability [10]	cell viability [11]	cell viability [12]	cell viability [13]	cell viability [14]	cell viability [15]	cell viability [16]	cell viability [17]	cell viability [18]	cell viability [19]	cell viability [20]	cell viability [21]	cell viability [22]	cell viability [23]	cell viability [24]	cell viability [25]	cell viability [26]	cell viability [27]	cell viability [28]	cell viability [29]	cell viability [30]	cell viability [31]	cell viability [32]	cell viability [33]
Cc1ccc(-c2ncn(-c3ccc(Nc4nccc(-c5cccc(N6CCOCC6)c5)n4)cc3)n2)cn1	94.8%	90.9%	96.8%	109%	105%	87.8%	13.6%	10.2%	7.32%	8.09%	5.6%	88.4%	40%	80.9%	94.6%	86.4%	87.4%	16.4%	8.16%	7.21%	5.58%	6.57%	87.7%	94.2%	88.9%	97.8%	94.9%	89.2%	20.3%	8.8%	8.22%	7.85%	5.33%
CC(C)NCC(O)c1ccc(NS(C)(=O)=O)cc1 (stereo not given)	110%	114%	110%	120%	126%	119%	101%	113%	109%	102%	111%	90.5%	91.9%	104%	86.2%	90.7%	98.6%	89.4%	89%	94.1%	104%	94.2%	87.9%	103%	110%	102%	105%	124%	102%	94.1%	102%	98.1%	117%
CC(C)NCC(O)COc1ccc(CCOCC2CC2)cc1 (stereo not given)												118%	128%	107%	109%	105%	107%	109%	110%	114%	102%	19.9%	121%	125%	122%	117%	119%	118%	129%	113%	116%	99.1%	20.9%
CCCCCCCCCCCCCCCCCCOP(=O)([O-])OC1CC[N+](C)(C)CC1	93.4%	114%	94.8%	114%	110%	120%	114%	107%	107%	98.4%	99%	90.5%	105%	113%	121%	98.5%	113%	120%	105%	110%	93.8%	96.4%	96.6%	107%	105%	103%	100%	118%	110%	102%	106%	93.2%	84.7%
O=[N+]([O-])c1cnc(Sc2nnc(O)n2-c2ccc3c(c2)OCCO3)s1	84.4%	73.6%	101%	102%	96.4%	92.3%	86.3%	96.1%	93.6%	6.33%	2.43%	81.7%	78.2%	95.3%	92%	85.2%	86.2%	82.8%	92.2%	84.7%	2.77%	2.27%	78.9%	96.3%	92%	97.1%	92.2%	98.9%	95.3%	89.9%	83.5%	6.45%	1.89%
CC1(C)CC(O)CC(C)(C)N1[O]	100%	125%	109%	115%	115%	114%	125%	121%	124%	129%	120%	105%	122%	128%	116%	128%	128%	123%	118%	135%	128%	127%	100%	123%	121%	123%	119%	119%	123%	125%	120%	123%	129%
O=C(CCCCCCC(=O)Nc1ccccc1)NO	92.9%	102%	106%	96.9%	113%	104%	102%	111%	67.3%	38.4%	5.95%	81.3%	94%	89.2%	96.4%	110%	105%	109%	98.9%	83.3%	44%	5%	74.9%	90.8%	102%	114%	119%	105%	119%	113%	88.6%	57.6%	6.52%
C[S+]([O-])c1ccc(-c2nc(-c3ccc(F)cc3)c(-c3ccncc3)[nH]2)cc1 (stereo not given)	78.8%	101%	108%	106%	106%	117%	106%	66.2%	35.1%	3.41%	2.33%	80%	90.4%	105%	95%	113%	96.3%	106%	75.9%	29.7%	4.04%	2.28%	83.5%	86.2%	87.3%	98.2%	99.1%	86.5%	99.1%	64.6%	34.6%	4.16%	2.47%
COc1cc(OC)c(NC(=O)Nc2cc(C)on2)cc1Cl	97.6%	96.4%	100%	106%	106%	84.4%	119%	114%	100%	105%	96.9%	83.5%	96.7%	85.2%	92.7%	93.8%	97.9%	93.9%	91%	90.1%	88.7%	99.5%	86.8%	83.8%	81.3%	85.6%	97.3%	89.4%	98%	79.7%	83%	88.1%	88.3%
CN(C)CCN(Cc1ccc(Cl)cc1)c1ccccn1.Cl	84.4%	90.2%	89.4%	95.3%	91%	78.5%	98.2%	63.8%	93.9%	91.1%	90.3%	85.2%	90%	92.7%	92.6%	84.1%	96.8%	99.2%	85.9%	92%	80%	90.5%	83.5%	95.1%	91.7%	96.1%	94.1%	89.3%	103%	50.5%	87.3%	89.8%	79.6%
OC1=CC=C(C=C1)\C2=C\C(=O)C3=C(O2)C=C(O)C=C3O	102%	111%	104%	107%	103%	126%	89.2%	107%	98.1%	84.1%	57.2%	108%	112%	108%	108%	105%	105%	97.9%	96%	107%	88.9%	53.6%	108%	101%	114%	104%	104%	102%	116%	99.3%	97.8%	80%	54.6%
NC\1=N\C(=O)N(\C=C1)[C@H]\2[C@H](O)[C@H](O)C(=C2F)\CO	78.5%	111%	105%	101%	110%	90.8%	94.7%	67.5%	32.1%	33.6%	11.3%	86.3%	112%	117%	106%	107%	88.2%	93%	83.5%	54.6%	12.6%	7.41%	89.1%	96.9%	104%	111%	109%	107%	111%	86.4%	27.7%	10.2%	7.62%
COC1=CC2=C(C=C1OC)[C@H]3[C@@H](CO2)OC4=C(C=CC5=C4\C=C/C(C)(C)O5)C3=O	82.8%	89.3%	106%	96.8%	95%	98.5%	94%	82.8%	70.4%	69.3%	10.3%	88.8%	95.3%	93.3%	99.2%	89%	93.6%	90.8%	82.8%	78.7%	76.5%	9.87%	86.3%	88.1%	91%	95.2%	79.9%	98.1%	94.3%	88.5%	81.9%	81.4%	21.4%
C#C[C@]1(O)CC[C@H]2[C@@H]3CCc4cc(OC)ccc4[C@H]3CC[C@@]21C	108%	123%	114%	118%	117%	114%	107%	105%	109%	102%	95.4%	117%	124%	108%	110%	123%	123%	117%	108%	106%	104%	93.5%	115%	107%	106%	124%	120%	108%	103%	109%	104%	103%	107%
O=c1[nH]cnc2c1ncn2[C@H]1CC[C@@H](CO)O1	91.5%	91.9%	118%	97.9%	93.2%	88.8%	98.6%	100%	107%	71.9%	55%	78.5%	88.5%	93.2%	94.7%	87.7%	87.7%	101%	90.4%	94.4%	85.5%	48.4%	75.4%	92.5%	97.8%	94.5%	95.1%	83.5%	92.8%	97.3%	103%	89%	57.1%
COc1ccnc(C[S+]([O-])c2nc3cc(OC(F)F)ccc3[nH]2)c1OC (stereo not given)	111%	124%	119%	131%	124%	134%	126%	115%	134%	128%	126%																						
